Results as given in patent US11179450B2, “Long chain antigen containing interepitope sequence that promotes antigen presentation to T cells” (MIE UNIVERSITY, priority 2013, dated 2021).

Columns and labels:
[1] = test system: mERK2 9m specific CD8+ T cells; assay: Specific CD8+ T cell induction in mice, intracellular cytokine staining (mERK2 9m epitope); assay type: in vivo, BALB/c mice
Method: (§1) Long chain peptide antigens MEN, all containing three types of mouse CD8+ T cell epitope sequences (MA p265 (Sequence No. 27), NY p81 (Sequence No. 29), and mERK2 9m (Sequence No. 28)), were synthesized. The interepitope sequences between the respective epitopes were one to six consecutive tyrosines (Sequence Nos. 1 and 9-12). Vaccines containing the respective long chain peptide antigens were administered to mice in the same manner as in FIG. 1 and the frequencies of CD8+ T cells specific to the respective epitope sequences were measured by the intracellular cytokine staining method.
as §1, with “five” for “one”, “ten” for “six”, “13-15).” for “9-12).”
Each CHP/long chain peptide complex as the vaccine and the CpG oligo DNA as the adjuvant were administered at the same time to a mouse. Administration was performed by subcutaneous injection on the back of the mouse. As the dose, the CHP/long chain peptide complex was administered at 0.05 to 0.1 mg equivalent of long chain peptide per administration. The CpG oligo DNA was administered at 0.05 mg per administration. One week after the final administration, spleen cells were separated by the following procedure from each vaccine-administered mouse. The spleen was isolated from the mouse and removed of blood by rinsing with RPMI1640 medium. After the spleen was triturated using a glass slide, the released cells were collected in RPMI1640 medium. After centrifuging (400×g, 5 minutes, 4° C.), the supernatant was removed and the cells were treated for 1 minute by adding 2 mL of ACK solution. […]

[2] = test system: CD11c+ cells (dendritic cells); assay: In vitro uptake of FAM-labeled long chain peptide antigens by antigen-presenting cells (dendritic cells); assay type: cell-based; settings: FIG. 8, complexed with CHP, 10 μg/mL, mouse spleen cells, 60 minutes, in comparison to G6 and P6
Source text: (§2) Long chain peptide antigens MEN, all containing three types of mouse CD8+ T cell epitope sequences (MA p265 (Sequence No. 27), NY p81 (Sequence No. 29), and mERK2 9m (Sequence No. 28)), were synthesized. The interepitope sequences between the respective epitopes were respectively six consecutive tyrosines (Y6), six consecutive glycines (G6), or six consecutive prolines (P6) (Sequence Nos. 1-3). Each long chain peptide antigen, labeled with the fluorescent dye FAM, was complexed with CHP and administered in vitro to mouse dendritic cells and mouse macrophages. After 60 minutes, the fluorescence uptakes into the respective cells were measured by flow cytometry with the P5 fraction in the figure being deemed to correspond to the dendritic cells and the P6 fraction in the figure being deemed to correspond to the macrophages.
(§3) In vitro uptake of the long chain peptide antigens by antigen-presenting cells was measured as follows. Each long chain peptide labeled with a fluorescent dye was complexed with CHP by the method described above. Spleen cells separated from a normal mouse were added at 1×10^6 cells/0.5 mL/well to a 24-well plate. […] The uptake of the fluorescence-labeled long chain peptide antigens by CD11c^+ cells (dendritic cells) and F4/80^+ cells (macrophages) were observed using flow cytometry.

[3] = test system: F4/80+ cells (macrophages); assay: In vitro uptake of FAM-labeled long chain peptide antigens by antigen-presenting cells (macrophages); assay type: cell-based; settings: FIG. 8, complexed with CHP, 10 μg/mL, mouse spleen cells, 60 minutes, in comparison to G6 and P6
Source text: as §2, §3

With “SNPARYEFLYYYYYYQYIHSANVLYYYYYYRGPESRLL (Long chain peptide antigen, containing three types of mouse CD8+ T cell epitope sequences (MA p265, NY p81, and mERK2 9m)) [MEN(Y6)]” the “induction of specific CD8+ T cells, mERK2 9m (second epitope)” value ([1]; FIG. 6, comparing one to six tyrosines) was “observed to some degree”, the “induction of specific CD8+ T cells, mERK2 9m (second epitope)” value ([1]; FIG. 7, comparing five to ten tyrosines) was “highest” and the “fluorescence uptake into dendritic cells” value [2] was “significantly higher”. The “fluorescence uptake into macrophages” value [3] was “significantly higher”.
